{
  "source": "patent US20240067603A1",
  "about": "“CUBANYL BIGUANIDE COMPOUNDS” (REGENTS OF THE UNIVERSITY OF MINNESOTA, priority 2020, published 2024)",
  "key": {"mm006": {"tested_on": "mm006", "assay": "Inhibition of mammary carcinoma cell line mm006", "format": "cell-based, mouse (C57BL/6)", "conditions": "Mus musculus, read-out: IC50 (uM), mm006", "method": "(§1) 3-(4,5-Dimethylthiazol-2-yl)-2,5-diphenyltetrazolium Bromide (MTT) Cell Proliferation Assay. To cells grown in 96-well-tissue culture plate, 20 μl/well of MTT solution (5 mg/ml in PBS) was added. After 1-2 hours incubation at 37° C., the plate was centrifuged. Supernatant was discarded and 100 μl DMSO was added to dissolve water insoluble formazan, and the absorbance was read at 540 nm with a plate reader."}, "BT474": {"tested_on": "BT474", "assay": "Inhibition of mammary carcinoma cell line BT474", "format": "cell-based", "conditions": "BT-474; Table 5; BT474, human, ERα+, HER2+", "method": "as §1"}, "[1]": {"assay": "Pharmacokinetics in mice plasma (LC-MS/MS)", "format": "in vivo", "conditions": "for AUC, subcutaneous vs IV, intraperitoneal or oral: FIGS. 14-15; for HL_Lambda_z: mice plasma; for Cmax / Tmax: mouse, plasma", "method": "HBB PK method: HBB in mice plasma was determined with an LC-MS/MS method using d5-HBB as the internal standard.\nSample preparation: HBB in 150 μL mice plasma was extracted by addition of 300 μL acetonitrile spiked with d5-HBB internal standard (0.5 ug/ml). The extraction mixture was centrifuged at 12,000×g for 5 minutes and 150 μL of supernatant was saved for LC-MS/MS analysis.\n(§2) LC-MS/MS method: A Quattro Ultima mass spectrometer (Waters, Milford, MA) equipped with an Acquity UPLC (Waters, Milford, MA) and interfaced through an MassLynx software (Waters, Milford, MA) was used. HBB and d5-HBB were resolved at base line with a Zorbax Eclipse XDG-C18 column (4.6×50 mm, 1.8 micron) (Agilent, Santa Clara, CA). Mobile phases were A: water (0.1% formic acid) and B: acetonitrile (0.1% formic acid). The flow rate was 250 μL/min. Elution gradient was as follow: 0-5 min, 90% A and 10% B; 5 min, 10% A and 90% B; 5.25 min, 90% A and 10% B; 10 min, 90% A and 10% B. At positive mode, ion transition for HBB 276.01 mz to 91.02 mz and d5-HBB 281.09 to 96.06 were monitored.\nQuantification: Quantitation was carried out by the MassLynx software based on an HBB standard curve (1.5-1500 ng/ml). Per FDA bioanalytical method validation guideline, standards and plasma samples were bracketed with QC samples to ensure accuracy and precision of the measurement.\nHCB PK method: HCB in mouse plasma was determined with an LC-MS/MS method using d5-HBB as the internal standard.\nSample preparation: HCB in 150 μL mice plasma was extracted by addition of 300 μL acetonitrile spiked with d5-HBB internal standard (0.5 ug/ml). The extraction mixture was centrifuged at 12,000×g for 5 minutes and 150 μL of supernatant was saved for LC-MS/MS analysis.\nas §2, with “used. Neo biguanide” for “used. HBB”, “Eclipse XDB-C18 Rapid Resolution HT (P.M. 927975-902)” for “Eclipse XDG-C18”, “for” for “for HBB 276.01 mz to 91.02 mz and”, “96.06 and corresponding neo biguanide parent daughter ion transition” for “96.06”\nQuantification: Quantitation was carried out by the MassLynx software based on an HCB standard curve (1.5-1500 ng/ml). Per FDA bioanalytical method validation guideline, standards and plasma samples were bracketed with QC samples to ensure accuracy and precision of the measurement."}, "[2]": {"assay": "Microsomal stability, mouse liver microsomes", "format": "in vitro ADME", "conditions": "10 μM, mouse liver microsomes 1 mg/mL, NADPH 2 mM, 37° C.", "method": "Microsomal stability of HBB and HCB were evaluated in human and mouse liver microsomes. 10 μM of HBB or HCB was tested in a biological matrix comprising of human or mouse liver microsomes (1 mg/mL) (Table 6). NADPH (2mM) was added as a cofactor. Total volume was 200 μL.\nHBB or HCB was incubated for 0, 30, or 60 min at 37° C. Incubations were quenched with 2 volumes of acetonitrile followed by centrifugation for 10 min at 16,000 g."}},
  "note": "Like-named read-outs stand apart in the source and are kept apart here.",
  "data": [
    {"smiles": "CCCCCCNC(=N)NC(=N)NCC12C3C4C5C3C1C5C42", "note": "(stereo not drawn) [HCB, Hexyl Cubanomethyl Biguanide]", "values": [
      {"measurement": "IC50", "setting": "mm006; Table 5, mm006, C57BL/6, Basal", "value": 16.9, "unit": "µM"},
      {"measurement": "IC50", "setting": "BT474", "value": 10.9, "unit": "µM"},
      {"measurement": "AUC, subcutaneous vs IV, intraperitoneal or oral", "setting": "[1]", "value": "better AUC"},
      {"measurement": "parent metabolite peak area after 60 min", "setting": "[2]", "value": 18.63, "unit": "%"}
    ]},
    {"smiles": "CCCCCCNC(=N)NC(=N)NCc1ccccc1", "note": "[HBB, N1-hexyl-N5-benzyl-biguanide]", "values": [
      {"measurement": "IC50", "setting": "mm006", "value": 38.5, "unit": "µM"},
      {"measurement": "IC50", "setting": "BT474", "value": 23.2, "unit": "µM"},
      {"measurement": "AUC, subcutaneous vs IV, intraperitoneal or oral", "setting": "[1]", "value": "better AUC"},
      {"measurement": "Cl_F_obs", "setting": "[1]; IP", "value": 88.25, "unit": "mL/min/kg"},
      {"measurement": "Vz_F_obs", "setting": "[1]; IP", "value": 62.842, "unit": "L/kg"},
      {"measurement": "HL_Lambda_z", "setting": "[1]; IP", "value": 8.23, "unit": "h"},
      {"measurement": "Cl_obs", "setting": "[1]; IV", "value": 50.65, "unit": "mL/min/kg"},
      {"measurement": "Vz_obs", "setting": "[1]; IV", "value": 32.933, "unit": "L/kg"},
      {"measurement": "HL_Lambda_z", "setting": "[1]; IV", "value": 7.51, "unit": "h"},
      {"measurement": "Cl_F_obs", "setting": "[1]; SC", "value": 32.89, "unit": "mL/min/kg"},
      {"measurement": "Vz_F_obs", "setting": "[1]; SC", "value": 23.131, "unit": "L/kg"},
      {"measurement": "fold greater AUC, subcutaneous than ip", "setting": "[1]; SC vs ip", "value": 2.6, "unit": "fold"},
      {"measurement": "HL_Lambda_z", "setting": "[1]; SC", "value": 8.13, "unit": "h"},
      {"measurement": "Cmax", "setting": "[1]; ip", "value": 1840, "unit": "ng/mL"},
      {"measurement": "Tmax", "setting": "[1]; ip", "value": 1, "unit": "min"},
      {"measurement": "Cmax", "setting": "[1]; iv", "value": 20100, "unit": "ng/mL"},
      {"measurement": "Tmax", "setting": "[1]; iv", "value": 1, "unit": "min"},
      {"measurement": "Cmax", "setting": "[1]; sc", "value": 1860, "unit": "ng/mL"},
      {"measurement": "Tmax", "setting": "[1]; sc", "value": 5, "unit": "min"},
      {"measurement": "parent metabolite peak area after 60 min", "setting": "[2]", "value": 8.95, "unit": "%"}
    ]}
  ]
}
